Assay results reported in patent US10005782B2, “Substituted pyrazolo[1,5-a]pyrimidines as bruton's tyrosine kinase modulators” (BeiGene, Ltd., priority 2013, dated 2018).
Read-outs that look alike come from different tables or passages of the source.

Molecular target: Recombinant Btk (Homo sapiens (Human), UniProt Q06187)
Assay: Btk kinase assay (TR-FRET)
[1] = read-out: IC50 (nM) Btk, 1 hour pre-incubation, ATP at Km

Chain of Recombinant Btk (Q06187 whole entry): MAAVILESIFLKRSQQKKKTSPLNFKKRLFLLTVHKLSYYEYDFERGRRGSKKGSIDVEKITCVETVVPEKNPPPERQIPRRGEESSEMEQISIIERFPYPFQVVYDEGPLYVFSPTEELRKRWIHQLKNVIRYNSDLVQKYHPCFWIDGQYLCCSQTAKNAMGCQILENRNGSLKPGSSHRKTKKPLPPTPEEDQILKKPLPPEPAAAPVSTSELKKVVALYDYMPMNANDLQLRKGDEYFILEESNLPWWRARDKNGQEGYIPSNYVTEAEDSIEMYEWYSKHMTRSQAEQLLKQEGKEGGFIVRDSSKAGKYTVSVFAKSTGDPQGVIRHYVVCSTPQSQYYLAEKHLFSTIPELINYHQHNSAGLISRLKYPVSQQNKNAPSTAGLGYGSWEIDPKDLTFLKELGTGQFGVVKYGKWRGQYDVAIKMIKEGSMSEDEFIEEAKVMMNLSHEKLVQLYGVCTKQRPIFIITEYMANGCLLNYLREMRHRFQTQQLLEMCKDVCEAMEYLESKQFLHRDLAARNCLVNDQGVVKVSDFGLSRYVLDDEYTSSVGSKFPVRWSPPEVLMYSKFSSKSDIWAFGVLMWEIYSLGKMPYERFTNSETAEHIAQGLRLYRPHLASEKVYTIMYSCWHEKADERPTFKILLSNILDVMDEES

Question: How did the IC50 (read-out: IC50 (nM) Btk, 1 hour pre-incubation, ATP at Km, listed as 2a (peak 1)) turn out when `NC(=O)c1c(-c2ccc(Oc3ccccc3)cc2)nn2c1NCCC2c1cccc(N)c1` (single isomer, unassigned) [Compound 2a, 7-(3-Aminophenyl)-2-(4-phenoxyphenyl)-4,5,6,7-tetrahydropyrazolo[1,5-a]pyrimidine-3-carboxamide] was run?
Answer: 270 nM

Question: Which IC50 (read-out: IC50 (nM) Btk, 1 hour pre-incubation, ATP at Km, listed as 2b (peak 2)) does the source give for `NC(=O)c1c(-c2ccc(Oc3ccccc3)cc2)nn2c1NCCC2c1cccc(N)c1` (single isomer, unassigned) [Compound 2b, 7-(3-Aminophenyl)-2-(4-phenoxyphenyl)-4,5,6,7-tetrahydropyrazolo[1,5-a]pyrimidine-3-carboxamide] here?
Answer: 210 nM

Question: For `C=CC(=O)Nc1ccccc1C1CCNc2c(C(N)=O)c(-c3ccc(F)c(F)c3)nn21` (stereo not shown) [Compound 137, 7-(2-acrylamidophenyl)-2-(3,4-difluorophenyl)-4,5,6,7-tetrahydropyrazolo[1,5-a]pyrimidine-3-carboxamide], which IC50 [1] is on record?
Answer: 3.7 nM

Question: How did the IC50 [1] turn out when `C=CC(=O)Nc1ccccc1C1CCNc2c(C(N)=O)c(-c3ccc(OC)c(OC)c3)nn21` (stereo not shown) [Compound 168, 7-(2-Acrylamidophenyl)-2-(3,4-dimethoxyphenyl)-4,5,6,7-tetrahydropyrazolo[1,5-a]pyrimidine-3-carboxamide] was run?
Answer: 3.7 nM
